Measurements as given in patent US9062051B2, “Compounds and pharmaceutical compositions thereof for the treatment of proliferative disorders” (GALAPAGOS NV, priority 2014, dated 2015).

The compounds below were run against T1, Recombinant EphA7 (Homo sapiens, UniProt Q15375) (assay: EphA7 assay (33P incorporation into poly GT, filter plate)). Details: EphA7 potency; 0.15 μM ATP; read-out: IC50.
T1 construct: purchased Carna 08-126
Type: biochemical
Description: The principle of the assay consists of the measurement of incorporated ^33P into the substrate poly GT when phosphorylated by the enzyme EphA7 using [^33P]-γ-ATP and ATP. Unincorporated ^33P is removed by loading the samples on a filter plate (using a harvester, Perkin Elmer) and 6 subsequent washing steps. ^33P incorporated in polyGT is measured on a Topcount after addition of microscint to the filter plates (Perkin Elmer).
Recombinant EphA7 (Carna Cat#08-126, 2 ng per well) was incubated with 0.1 mg/mL Poly(Glu,Tyr)sodium salt (4:1), MW 20 000-50 000 (Sigma catalog number P0275) in kinase reaction buffer (10 mM MOPS pH 7.2, 5 mM DTT, 0.01% Triton-X100, 5 mM MnCl2, 0.5 mM Na3VO4, 5 mM beta-glycerolphosphate), 0.15 μM non-radioactive ATP, 0.125 μCi/25 μl ^33P-gamma-ATP (Perkin Elmer, catalog number NEG602K) final concentrations with or without 5 μL containing test compound or vehicle (DMSO, 1% final concentration), in a total volume of 25 μL, in a polypropylene 96-well plate (Greiner, V-bottom). After 90 min at 30° C., reactions were stopped by adding of 25 μL/well of 150 mM phosphoric acid. All of the terminated kinase reaction was transferred to prewashed (75 mM phosphoric acid) 96 well filter plates (Perkin Elmer catalog number 6005177) using a cell harvester (Perkin Elmer). Plates were washed 6 times with 300 μL per well of a 75 mM phosphoric acid solution and the bottom of the plates was sealed. 40 μL/well of Microscint-20 was added, the top of the plates was sealed and readout was performed using the Topcount (Perkin Elmer). The ability of a test compound to inhibit the kinase activity was determined using counts per minutes (cpm) measured by the Topcount as:
Cpm (cpd): cpm determined for sample with test compound present
Cpm (control): cpm determined for sample with positive control inhibitor (10 μM staurosporine)
Cpm (vehicle): cpm determined in the presence of vehicle (1% DMSO)
Dose dilution series were prepared for the compounds enabling the testing of dose-response effects in the EphA7 assay and the calculation of the IC50 for each compound. Each compound was routinely tested at concentration of 20 μM followed by a 1/5 serial dilution, 10 points in a final concentration of 1% DMSO. When potency of compound series increased, more dilutions may be prepared and/or the top concentration may be lowered (e.g. 5 μM, 1 μM).

T1 sequence (Q15375 579-998 limits assumed): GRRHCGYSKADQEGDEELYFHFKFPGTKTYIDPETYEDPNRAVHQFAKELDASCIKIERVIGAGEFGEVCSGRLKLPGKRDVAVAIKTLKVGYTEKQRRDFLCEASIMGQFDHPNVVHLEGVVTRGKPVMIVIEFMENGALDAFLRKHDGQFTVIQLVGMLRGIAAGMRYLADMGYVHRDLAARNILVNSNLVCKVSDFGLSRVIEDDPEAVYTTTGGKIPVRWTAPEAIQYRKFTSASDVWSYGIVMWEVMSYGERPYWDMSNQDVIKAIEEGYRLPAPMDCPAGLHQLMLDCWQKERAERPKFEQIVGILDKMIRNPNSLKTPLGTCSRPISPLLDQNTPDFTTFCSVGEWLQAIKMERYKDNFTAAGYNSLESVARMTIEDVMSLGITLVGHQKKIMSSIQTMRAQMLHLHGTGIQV

IC50, 0.01 to 250 nM:
CCc1n[nH]c2nc(-c3cc(NC(=O)c4cc(OCCN5CCOCC5)cc(C5CC5)c4)cnc3C)ccc12 [Compound 43, 3-Cyclopropyl-N-[5-(3-ethyl-1H-pyrazolo[3,4-b]pyridin-6-yl)-6-methyl-pyridin-3-yl]-5-(2-morpholin-4-yl-ethoxy)-benzamide]

These compounds were tested against T2, EphA2 (UniProt Ref: P29317) (Homo sapiens, UniProt P29317) (assay: EphA2 assay (Reaction Biology HotSpot radioactive kinase assay)). Details: ATP 10 μM; read-out: EphA2 potency IC50.
T2 construct: purchased Reaction Biology
Type: biochemical
Description: Inhibition of EphA2 (UniProt Ref: P29317) by a test compound is determined by a commercially available Reaction Biology proprietary nanoliter radioactive HotSpot^SM assay (Reaction Biology, One great valley parkway, Suite 2, Malvern Pa., 19355, USA). The principle of the assay consists of the measurement of incorporated ^33P into poly[Glu:Tyr] (4:1) (0.2 mg/mL) when the substrate is phosphorylated by the enzyme using [^33P]-γ-ATP and ATP (10 μM).
To determine the IC50, a serial dilution of compound is tested starting from 10, or 3 μM (highest dilution) with a 1/3 dilution.

T2 sequence (P29317 24-976): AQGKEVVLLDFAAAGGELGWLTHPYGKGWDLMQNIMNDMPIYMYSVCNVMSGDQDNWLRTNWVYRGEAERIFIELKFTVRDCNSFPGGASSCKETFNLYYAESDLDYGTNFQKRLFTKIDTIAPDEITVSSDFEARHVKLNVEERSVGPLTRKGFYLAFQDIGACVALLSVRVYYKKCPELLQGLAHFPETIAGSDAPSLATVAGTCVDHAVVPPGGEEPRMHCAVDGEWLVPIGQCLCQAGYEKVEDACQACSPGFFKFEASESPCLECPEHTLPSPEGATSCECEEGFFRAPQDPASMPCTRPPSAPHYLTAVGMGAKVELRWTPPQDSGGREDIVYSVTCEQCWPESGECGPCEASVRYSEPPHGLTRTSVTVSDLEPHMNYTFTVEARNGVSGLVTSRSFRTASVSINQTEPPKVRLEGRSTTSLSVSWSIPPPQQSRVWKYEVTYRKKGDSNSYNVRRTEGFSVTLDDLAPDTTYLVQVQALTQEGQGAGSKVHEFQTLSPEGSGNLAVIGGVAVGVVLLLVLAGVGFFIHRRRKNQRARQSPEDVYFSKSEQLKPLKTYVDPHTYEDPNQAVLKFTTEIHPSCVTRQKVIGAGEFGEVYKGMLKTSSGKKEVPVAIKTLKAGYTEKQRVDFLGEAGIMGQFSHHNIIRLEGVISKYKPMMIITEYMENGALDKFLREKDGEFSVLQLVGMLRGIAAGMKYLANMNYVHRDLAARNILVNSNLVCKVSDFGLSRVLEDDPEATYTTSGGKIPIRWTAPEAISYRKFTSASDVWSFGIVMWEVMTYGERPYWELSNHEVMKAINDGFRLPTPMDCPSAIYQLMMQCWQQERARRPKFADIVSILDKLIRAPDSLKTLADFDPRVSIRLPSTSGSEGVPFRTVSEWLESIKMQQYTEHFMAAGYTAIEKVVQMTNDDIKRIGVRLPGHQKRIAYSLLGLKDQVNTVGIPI

IC50, 50 to 100 nM:
CCc1n[nH]c2nc(-c3cc(NC(=O)c4cc(N(C)C)cc(C(F)(F)F)c4)ccc3C)ccc12 [Compound 26, 3-Dimethylamino-N-[3-(3-ethyl-1H-pyrazolo[3,4-b]pyridin-6-yl)-4-methyl-phenyl]-5-trifluoromethyl-benzamide]
CCc1ccc(NC(=O)c2cc(OC)cc(OC)c2)cc1-c1ccc2c(CC)n[nH]c2n1 [Compound 32, N-[4-Ethyl-3-(3-ethyl-1H-pyrazolo[3,4-b]pyridin-6-yl)-phenyl]-3,5-dimethoxy-benzamide]
CCc1n[nH]c2nc(-c3cc(NC(=O)c4cc(OC)cc(OCCN)c4)cnc3C)ccc12 [Compound 44, 3-(2-Amino-ethoxy)-N-[5-(3-ethyl-1H-pyrazolo[3,4-b]pyridin-6-yl)-6-methyl-pyridin-3-yl]-5-methoxy-benzamide]

IC50, 0.01 to 25 nM:
Cc1ccc(NC(=O)c2cccc(C(F)(F)F)c2)cc1-c1ccc2c(CO)n[nH]c2n1 [Compound 1, N-(3-(3-(hydroxymethyl)-1H-pyrazolo[3,4-b]pyridin-6-yl)-4-methylphenyl)-3-(trifluoromethyl)benzamide]
CCc1n[nH]c2nc(-c3cc(NC(=O)c4cc(C)cc(OC)c4)ccc3C)ccc12 [Compound 19, N-[3-(3-Ethyl-1H-pyrazolo[3,4-b]pyridin-6-yl)-4-methyl-phenyl]-3-methoxy-5-methyl-benzamide]
CCc1n[nH]c2nc(-c3cc(NC(=O)c4cc(C)cc(OCCO)c4)ccc3C)ccc12 [Compound 23, N-[3-(3-Ethyl-1H-pyrazolo[3,4-b]pyridin-6-yl)-4-methyl-phenyl]-3-(2-hydroxy-ethoxy)-5-methyl-benzamide]
CCc1n[nH]c2nc(-c3cc(NC(=O)c4cc(C)cc(OCCN(C)C)c4)ccc3C)ccc12 [Compound 25, 3-(2-Dimethylamino-ethoxy)-N-[3-(3-ethyl-1H-pyrazolo[3,4-b]pyridin-6-yl)-4-methyl-phenyl]-5-methyl-benzamide]
CCc1n[nH]c2nc(-c3cc(NC(=O)c4cc(OC)cc(C(F)(F)F)c4)ccc3C)ccc12 [Compound 33, N-[3-(3-Ethyl-1H-pyrazolo[3,4-b]pyridin-6-yl)-4-methyl-phenyl]-3-methoxy-5-trifluoromethyl-benzamide]
CCc1n[nH]c2nc(-c3cc(NC(=O)c4cc(OC)cc(OCCN)c4)ccc3C)ccc12 [Compound 39, 3-(2-amino-ethoxy)-N-[3-(3-ethyl-1H-pyrazolo[3,4-b]pyrin-6-yl)-4-methylphenyl]-5-methoxybenzamide]
CCc1n[nH]c2nc(-c3cc(NC(=O)c4cc(OC)cc(OCCN5CCOCC5)c4)ccc3C)ccc12 [Compound 41, N-[3-(3-Ethyl-1H-pyrazolo[3,4-b]pyridin-6-yl)-4-methyl-phenyl]-3-methoxy-5-(2-morpholin-4-yl-ethoxy)-benzamide]
CCc1n[nH]c2nc(-c3cc(NC(=O)c4cc(OCCN5CCOCC5)cc(C5CC5)c4)cnc3C)ccc12 [Compound 43, 3-Cyclopropyl-N-[5-(3-ethyl-1H-pyrazolo[3,4-b]pyridin-6-yl)-6-methyl-pyridin-3-yl]-5-(2-morpholin-4-yl-ethoxy)-benzamide]
CCc1n[nH]c2nc(-c3cc(NC(=O)c4cc(OC)cc(C5CC5)c4)ccc3C)ccc12 [Compound 51, 3-Cyclopropyl-N-[3-(3-ethyl-1H-pyrazolo[3,4-b]pyridin-6-yl)-4-methyl-phenyl]-5-methoxy-benzamide]
Cc1cc(C)cc(C(=O)Nc2cnc(C)c(-c3ccc4c(C)n[nH]c4n3)c2)c1 [Compound 52, 3,5-Dimethyl-N-[6-methyl-5-(3-methyl-1H-pyrazolo[3,4-b]pyridin-6-yl)-pyridin-3-yl]-benzamide]
Cc1ncc(NC(=O)c2cccc(C(F)(F)F)c2)cc1-c1ccc2c(C)n[nH]c2n1 [Compound 53, N-[6-Methyl-5-(3-methyl-1H-pyrazolo[3,4-b]pyridin-6-yl)-pyridin-3-yl]-3-trifluoromethyl-benzamide]
Cc1cc(C)cc(C(=O)Nc2ccc(C)c(-c3ccc4c(C(C)O)n[nH]c4n3)c2)c1 (stereo not drawn) [Compound 54, N-{3-[3-(1-Hydroxy-ethyl)-1H-pyrazolo[3,4-b]pyridin-6-yl]-4-methyl-phenyl}-3,5-dimethyl-benzamide]

IC50, 25 to 50 nM:
CCc1n[nH]c2nc(-c3cc(NC(=O)c4cc(OC)cc(OC)c4)ccc3Cl)ccc12 [Compound 22, N-[4-Chloro-3-(3-ethyl-1H-pyrazolo[3,4-b]pyridin-6-yl)-phenyl]-3,5-dimethoxy-benzamide]
COc1cc(OC)cc(C(=O)Nc2ccc(C)c(-c3ccc4c([C@@H](C)O)n[nH]c4n3)c2)c1 [Compound 48, N-{3-[3-((R)-1-Hydroxy-ethyl)-1H-pyrazolo[3,4-b]pyridin-6-yl]-4-methyl-phenyl}-3,5-dimethoxy-benzamide]
